The values that follow come from publication PMC3559828 (PLoS ONE, 2013).

The test system of one experiment is α9α10 nAChR. The conditions noted are these: cited from earlier work.
For a further experiment, the system named is GABAB receptors. The conditions noted are these: cited from earlier work.
In a further experiment the target is T1, Mouse α1β1γδ nAChR (Mus musculus, UniProt P02716+P04756+P09690+P20782).
T1 construct: expressed in transfected cells; host or cells: Xenopus oocytes injected with cRNA
T1 sequence (P04756 21-457 limits assumed): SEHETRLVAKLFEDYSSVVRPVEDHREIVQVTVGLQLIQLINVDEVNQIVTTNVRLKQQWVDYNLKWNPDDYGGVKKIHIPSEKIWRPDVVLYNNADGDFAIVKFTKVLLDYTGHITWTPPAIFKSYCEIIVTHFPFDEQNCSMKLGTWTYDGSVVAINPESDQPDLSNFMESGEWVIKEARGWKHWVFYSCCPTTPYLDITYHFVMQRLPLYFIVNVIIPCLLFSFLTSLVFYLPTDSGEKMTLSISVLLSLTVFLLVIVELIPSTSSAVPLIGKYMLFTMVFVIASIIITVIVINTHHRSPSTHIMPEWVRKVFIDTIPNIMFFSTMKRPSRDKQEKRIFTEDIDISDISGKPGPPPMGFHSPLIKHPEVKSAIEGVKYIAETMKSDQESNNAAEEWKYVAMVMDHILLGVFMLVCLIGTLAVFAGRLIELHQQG
T1 sequence (P09690 24-501 partner limits assumed): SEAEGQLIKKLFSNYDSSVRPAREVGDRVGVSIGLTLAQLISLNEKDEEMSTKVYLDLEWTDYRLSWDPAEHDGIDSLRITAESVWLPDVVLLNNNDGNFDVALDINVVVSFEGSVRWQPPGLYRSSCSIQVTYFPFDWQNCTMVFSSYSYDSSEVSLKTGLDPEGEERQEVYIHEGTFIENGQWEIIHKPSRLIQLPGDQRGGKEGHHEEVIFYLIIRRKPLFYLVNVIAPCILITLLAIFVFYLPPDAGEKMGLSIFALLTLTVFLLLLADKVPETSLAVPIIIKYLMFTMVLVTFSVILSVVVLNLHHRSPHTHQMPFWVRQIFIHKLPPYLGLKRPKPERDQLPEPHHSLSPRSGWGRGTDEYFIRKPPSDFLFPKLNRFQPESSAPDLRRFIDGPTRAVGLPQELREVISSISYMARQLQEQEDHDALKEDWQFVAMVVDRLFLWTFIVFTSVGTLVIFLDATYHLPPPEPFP
T1 sequence (P02716 25-520 limits assumed): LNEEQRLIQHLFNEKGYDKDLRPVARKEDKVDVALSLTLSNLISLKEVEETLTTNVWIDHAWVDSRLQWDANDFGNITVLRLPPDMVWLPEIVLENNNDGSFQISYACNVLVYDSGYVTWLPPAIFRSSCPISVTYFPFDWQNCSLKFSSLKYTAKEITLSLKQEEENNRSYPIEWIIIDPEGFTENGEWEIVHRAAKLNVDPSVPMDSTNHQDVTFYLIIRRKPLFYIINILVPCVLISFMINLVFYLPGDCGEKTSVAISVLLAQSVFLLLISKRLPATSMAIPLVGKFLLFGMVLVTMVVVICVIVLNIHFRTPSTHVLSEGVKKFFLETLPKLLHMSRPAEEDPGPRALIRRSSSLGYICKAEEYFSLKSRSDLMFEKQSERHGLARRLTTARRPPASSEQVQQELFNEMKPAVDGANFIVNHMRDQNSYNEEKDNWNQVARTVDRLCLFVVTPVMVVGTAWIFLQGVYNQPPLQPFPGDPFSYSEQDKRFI
T1 sequence (P20782 21-493 limits assumed): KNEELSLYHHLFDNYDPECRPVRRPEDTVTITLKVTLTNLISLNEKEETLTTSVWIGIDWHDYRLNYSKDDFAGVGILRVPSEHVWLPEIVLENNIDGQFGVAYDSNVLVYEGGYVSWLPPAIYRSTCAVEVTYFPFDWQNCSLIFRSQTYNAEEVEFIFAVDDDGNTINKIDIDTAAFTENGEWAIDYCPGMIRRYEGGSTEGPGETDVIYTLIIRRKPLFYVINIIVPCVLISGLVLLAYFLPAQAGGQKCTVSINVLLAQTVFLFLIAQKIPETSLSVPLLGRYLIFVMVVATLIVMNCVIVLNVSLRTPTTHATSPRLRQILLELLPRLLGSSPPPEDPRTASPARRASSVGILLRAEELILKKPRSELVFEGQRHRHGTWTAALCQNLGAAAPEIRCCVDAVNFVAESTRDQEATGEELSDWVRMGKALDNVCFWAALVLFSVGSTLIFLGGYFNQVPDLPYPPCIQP
Put plainly: cell-based.

Bridge positions count the residues as written; N and C are the ends. Peptide text beside a SMILES is read from it.

A word on the IC50: it is the concentration at which inhibition is half-maximal.

As to α-conotoxin RgIA, in the experiment on α9α10 nAChR, the IC50 is 0.019 µM. Also, the “activity at GABAB receptors” value in the experiment with GABAB receptors was “activate GABAB receptors”.

As to `CC(C)C[C@@H]1NC(=O)[C@@H](NC(=O)[C@H](CCCNC(=N)N)NC(=O)[C@@H](N)C(C)C)CSSC[C@@H](C(=O)N[C@H]2CSSC[C@@H](C(=O)N[C@H](C(=O)N[C@@H](Cc3ccc(O)cc3)C(=O)N[C@@H](Cc3ccc(O)cc3)C(=O)N[C@H](C(=O)N[C@@H](CCC(N)=O)C(=O)N[C@@H](CO)C(=O)N[C@@H](CCCNC(=N)N)C(=O)N[C@@H](CCC(=O)O)C(=O)O)[C@@H](C)O)C(C)C)NC(=O)[C@H](CCCNC(=N)N)NC(=O)[C@H](CO)NC(=O)[C@H](Cc3c[nH]cn3)NC(=O)[C@H](CCCNC(=N)N)NC(=O)[C@H](C)NC(=O)[C@H](Cc3ccccc3)NC(=O)[C@H](CO)NC(=O)[C@@H]3CCCN3C(=O)CNC(=O)[C@H](CCCCN)NC(=O)[C@H](CCC(N)=O)NC2=O)NC(=O)[C@@H]2CCCN2C(=O)[C@@H]2CCCN2C(=O)[C@H](CCCNC(=N)N)NC(=O)[C@H](Cc2ccccc2)NC(=O)[C@H](CC(C)C)NC(=O)[C@H](CCCCN)NC(=O)[C@H](CC(N)=O)NC(=O)[C@@H]2CCCN2C(=O)[C@H](CCC(N)=O)NC(=O)[C@H](C)NC(=O)CNC(=O)[C@H](CO)NC(=O)[C@H](CCCCN)NC(=O)[C@H](CCC(=O)O)NC1=O` [αB-VxXXIVA [1], [2]] (H-VRCLEKSGAQPNKLFRPPCCQKGPSFARHSRCVYYTQSRE-OH; disulfide 3-19, 20-32), the 50% inhibitory concentration (IC50) against Mouse α1β1γδ nAChR is 6.6 µM.
